ChEMBL document CHEMBL1909046, “DrugMatrix in vitro pharmacology data”

How the values were obtained:
[1] = DRUGMATRIX: Calcium Channel Type L, Phenylalkylamine radioligand binding (ligand: [3H] (-)-Desmethoxyverapamil (D-888)); assay type: cell membranes, Rattus norvegicus, Wistar, Brain, Membrane; conditions: Not Active = under 50% inhibition at 10 µM
[2] = molecular target: Histamine H2 receptor (Homo sapiens, UniProt P25021); assay type: cell membranes, CHO-K1, Membrane; conditions: cho-k1; note: in other assays of this panel Not Active means under 50% inhibition at 10 µM
Histamine H2 receptor, sequence (P25021 whole entry): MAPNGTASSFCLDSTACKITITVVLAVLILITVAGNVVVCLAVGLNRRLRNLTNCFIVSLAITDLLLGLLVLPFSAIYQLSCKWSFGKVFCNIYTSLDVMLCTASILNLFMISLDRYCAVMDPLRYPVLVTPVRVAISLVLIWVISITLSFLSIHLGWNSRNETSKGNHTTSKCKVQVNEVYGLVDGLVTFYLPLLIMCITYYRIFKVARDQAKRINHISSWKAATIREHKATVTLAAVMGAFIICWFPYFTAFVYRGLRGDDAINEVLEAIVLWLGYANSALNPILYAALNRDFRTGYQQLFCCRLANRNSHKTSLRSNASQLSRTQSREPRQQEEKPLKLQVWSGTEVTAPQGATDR

[3] = molecular target: T1, Adenosine receptor A3 (Homo sapiens, UniProt P0DMS8); assay type: cell membranes, CHO-K1, Membrane; conditions: cho-k1;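 note: radioligand binding assay with AB-MECA serving as the labeled ligand; in other assays of this panel Not Active means under 50% inhibition at 10 µM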
T1 sequence (P0DMS8 whole entry): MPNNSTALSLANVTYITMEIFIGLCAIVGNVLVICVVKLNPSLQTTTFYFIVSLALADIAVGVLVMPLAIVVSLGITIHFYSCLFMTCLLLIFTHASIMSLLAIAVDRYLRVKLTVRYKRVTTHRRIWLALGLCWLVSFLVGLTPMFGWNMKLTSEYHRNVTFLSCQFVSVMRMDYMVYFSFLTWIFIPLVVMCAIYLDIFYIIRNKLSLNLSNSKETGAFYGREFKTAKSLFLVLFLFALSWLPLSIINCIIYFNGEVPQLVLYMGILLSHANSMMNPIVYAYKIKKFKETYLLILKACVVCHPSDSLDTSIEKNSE

[4] = molecular target: T2, Interstitial collagenase (Homo sapiens, UniProt P03956); assay: biochemical; assay type: tissue-based, Rheumatoid synovial fibroblasts;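 note: MMP-1 enzyme inhibition assay using a peptide substrate; in other assays of this panel Not Active means under 50% inhibition at 10 µM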
T2 sequence (P03956 whole entry): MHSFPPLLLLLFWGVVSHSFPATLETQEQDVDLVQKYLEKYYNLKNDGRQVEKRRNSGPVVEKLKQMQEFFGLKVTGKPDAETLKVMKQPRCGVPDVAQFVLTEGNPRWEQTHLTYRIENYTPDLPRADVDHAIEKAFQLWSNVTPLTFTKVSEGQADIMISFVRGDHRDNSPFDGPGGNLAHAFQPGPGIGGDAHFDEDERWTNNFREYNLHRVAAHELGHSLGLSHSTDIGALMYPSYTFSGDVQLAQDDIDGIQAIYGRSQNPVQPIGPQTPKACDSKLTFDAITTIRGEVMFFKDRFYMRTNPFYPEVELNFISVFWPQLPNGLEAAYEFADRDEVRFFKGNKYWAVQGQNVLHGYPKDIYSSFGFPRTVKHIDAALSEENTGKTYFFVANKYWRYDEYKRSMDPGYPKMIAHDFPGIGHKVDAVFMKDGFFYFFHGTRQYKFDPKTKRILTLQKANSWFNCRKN

[5] = molecular target: D(3) dopamine receptor (Homo sapiens, UniProt P35462); assay: DRUGMATRIX: Dopamine D3 radioligand binding (ligand: [3H] Spiperone); assay type: cell membranes, CHO, Membrane
D(3) dopamine receptor, sequence (P35462 whole entry): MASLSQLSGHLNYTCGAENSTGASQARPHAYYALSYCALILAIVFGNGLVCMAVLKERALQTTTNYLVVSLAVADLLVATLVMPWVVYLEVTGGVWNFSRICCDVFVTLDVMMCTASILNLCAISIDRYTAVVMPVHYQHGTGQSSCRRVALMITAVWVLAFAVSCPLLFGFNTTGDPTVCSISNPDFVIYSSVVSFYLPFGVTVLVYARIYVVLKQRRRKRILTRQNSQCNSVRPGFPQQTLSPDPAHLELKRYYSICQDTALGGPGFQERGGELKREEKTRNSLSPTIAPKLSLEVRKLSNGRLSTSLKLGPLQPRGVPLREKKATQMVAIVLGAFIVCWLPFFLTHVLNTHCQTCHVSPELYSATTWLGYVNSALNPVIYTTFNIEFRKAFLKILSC

SMILES	IC50 [1]	Ki [1]	IC50 [2]	IC50 [3]	IC50 [4]	Ki [5]	IC50 ([5]; read-out: IC50)	IC50 ([5]; cho)
O=C1CC2(CCCC2)CC(=O)N1CCCCN1CCN(c2ncccn2)CC1 [BUSPIRONE]	Not Active	Not Active	Not Active	Not Active	Not Active	15 nM	44 nM	
C[C@@]12C(=O)OC(=O)[C@]1(C)[C@H]1CC[C@@H]2O1 [CANTHARIDIN]	Not Active	Not Active	Not Active	Not Active	Not Active			Not Active
O=NN(CCCl)C(=O)NCCCl [CARMUSTINE]	Not Active	Not Active	Not Active	Not Active	Not Active			Not Active
CC1=C(C(=O)O)N2C(=O)[C@@H](NC(=O)[C@H](N)c3ccccc3)[C@H]2SC1 [CEPHALEXIN ANHYDROUS]	Not Active	Not Active	Not Active	Not Active	Not Active			Not Active
O=C(N[C@H](CO)[C@H](O)c1ccc([N+](=O)[O-])cc1)C(Cl)Cl [CHLORAMPHENICOL]	Not Active	Not Active	Not Active	Not Active	Not Active			Not Active
ClC(Cl)Cl [CHLOROFORM]	Not Active	Not Active	Not Active	Not Active	Not Active			Not Active
C=C1CC[C@H](O)C/C1=C/C=C1\CCC[C@]2(C)[C@@H]([C@H](C)CCCC(C)C)CC[C@@H]12 [CHOLECALCIFEROL]	Not Active	Not Active	Not Active	Not Active	Not Active			Not Active
C[N+](C)(C)CCO.[Cl-] [CHOLINE CHLORIDE]	Not Active	Not Active	Not Active	Not Active	Not Active			Not Active
CCOC(=O)C(C)(C)Oc1ccc(Cl)cc1 [CLOFIBRATE]	Not Active	Not Active	Not Active	Not Active	Not Active			Not Active
CC(=O)OCC(=O)[C@@]1(O)CC[C@H]2[C@@H]3CCC4=CC(=O)CC[C@]4(C)[C@H]3C(=O)C[C@@]21C [CORTISONE ACETATE]	Not Active	Not Active	Not Active	Not Active	Not Active			Not Active
O=c1ccc2ccccc2o1 [COUMARIN]	Not Active	Not Active	Not Active	Not Active	Not Active			Not Active
C[C@@H]1C[C@@H]([C@H](O)CC2CC(=O)NC(=O)C2)C(=O)[C@@H](C)C1 [CYCLOHEXIMIDE]	Not Active	Not Active	Not Active	Not Active	Not Active			Not Active
C/C=C/C[C@@H](C)[C@@H](O)[C@H]1C(=O)N[C@@H](CC)C(=O)N(C)CC(=O)N(C)[C@@H](CC(C)C)C(=O)N[C@@H](C(C)C)C(=O)N(C)[C@@H](CC(C)C)C(=O)N[C@@H](C)C(=O)N[C@H](C)C(=O)N(C)[C@@H](CC(C)C)C(=O)N(C)[C@@H](CC(C)C)C(=O)N(C)[C@@H](C(C)C)C(=O)N1C [CYCLOSPORINE]	Not Active	Not Active	Not Active	Not Active	Not Active			Not Active
CN(C)/N=N/c1[nH]cnc1C(N)=O [DACARBAZINE]	Not Active	Not Active	Not Active	Not Active	Not Active			Not Active
COc1ccc2c(c1)[C@]13CCCC[C@@H]1[C@H](C2)N(C)CC3 [DEXTROMETHORPHAN]	Not Active	Not Active	Not Active	Not Active	Not Active			Not Active
CC(=O)Nc1c(I)c(NC(C)=O)c(I)c(C(=O)O)c1I [DIATRIZOIC ACID]	Not Active	Not Active	Not Active	Not Active	Not Active			Not Active
COP(=O)(OC)OC=C(Cl)Cl [DICHLORVOS]	Not Active	Not Active	Not Active	Not Active	Not Active			Not Active
O=C(O)Cc1ccccc1Nc1c(Cl)cccc1Cl [DICLOFENAC]	Not Active	Not Active	Not Active	Not Active	Not Active			Not Active
